Measured values published in patent US9315510B2, “Method and application of unsymmetrically meso-substituted porphyrins and chlorins for PDT” (Biolitec Pharma Marketing LTD, priority 2008, dated 2016).

Key:
[1] = test system: human colon adenocarcinoma cell line HT29; assay: Cell tests in the HT 29 cell line: photosensitizing activity, XTT cell viability; type: cell-based
Experimental: The photosensitizing activity was determined in the human colon adenocarcinoma cell line HT29. The HT29 cell lines were grown in DMEM (cc-pro GmbH) supplemented with 10% heat-inactivated fetal calf serum (FCS, cc-pro GmbH), 1% penicillin (10000 IU) and streptomycin (10000 μg/ml, cc-pro GmbH). Cells were kept as a monolayer culture in a humidified incubator (5% CO2 in air at 37° C.
(§1) A photosensitizer stock solution (2 mM) was performed in DMSO and was kept in the dark at 4° C. Further dilution was performed in RPMI 1640 medium without phenol red supplemented with 10% FCS to reach a final photosensitizer concentration of 2 or 10 μM, respectively.
(§2) 2·10^4 cells/ml were seeded in micro plates (2·10^5 cells/well). Cells were incubated with fresh medium (RPMI without phenol red) containing 10% FCS with 2 or 10 μM of the photosensitizer for 24 h before light exposure. […]
(§3) The cell viability was assessed by the XTT assay. […]
(§4) The absorbance of the samples was measured with a spectrophotometer (Bio-Kinetics Reader EL312 e; Bio-Tek Instruments Inc.) at a wavelength of 490 nm. In order to measure reference absorbance (to measure non-specific readings) a wavelength of 630-690 nm was used.

[2] = test system: rabbit synoviocyte cell line HIG-82; assay: Cell tests in the rabbit synoviocyte cell line HIG-82: photodynamic activity, XTT cell viability; type: cell-based; details: HIG82, 2 or 10 μM photosensitizer, 24 h incubation, 652 nm diode laser, 50 J/cm^2
Experimental: (§5) The mouse monocytes-macrophages cell line J774A.1 and the rabbit synoviocyte cell line HIG-82 were grown in DMEM (cc-pro GmbH) supplemented with 10% heat-inactivated fetal calf serum (FCS, cc-pro GmbH), 1% penicillin (10000 IU) and streptomycin (10 000 μg/ml, cc-pro GmbH). Cells were kept as a monolayer culture in a humidified incubator (5% CO2 in air at 37° C.).
as §1, §2, §3, §4

[3] = test system: mouse monocytes-macrophages cell line J774A.1; assay: Cell tests in the mouse macrophage cell line J774A.1: photodynamic activity, XTT cell viability; type: cell-based; details: 2 or 10 μM photosensitizer, 24 h incubation, 652 nm diode laser, 50 J/cm^2
Experimental: as §5, §1, §2, §3, §4

Molecule | photodynamic activity [2] | photodynamic activity [3] | melting point | also measured
5,15-Bis-(4-carboxyphenyl)-10,20-dihexyl-7,8-dihydroxy-7,8-chlorin | very strong photodynamic activity | very strong photodynamic activity | – | photodynamic activity (photo toxicity) ([1]; HT29, 2 or 10 μM photosensitizer, 24 h incubation, 652 nm diode laser, 100 mW/cm^2 (50 J/cm^2), XTT 24 h after irradiation): very strong photodynamic activity; dark toxicity (DT) and photo toxicity ([1]; HT 29 cell line, cell culture experiments (FIG. 4A)): excellent properties
CCCCCCCCCCCCCc1c2nc(c(CCCCCCCCCCCCC)c3ccc([nH]3)c(-c3cccc(O)c3)c3nc(c(-c4cccc(O)c4)c4ccc1[nH]4)C=C3)C=C2 [5,10-Bis-(3-hydroxyphenyl)-15,20-bis-(tridecyl)-porphyrin] | – | – | 113 °C | –
CCCCCCc1c2nc(c(CCCCCC)c3ccc([nH]3)c(-c3ccc(C(=O)OC)cc3)c3nc(c(-c4ccc(C(=O)OC)cc4)c4ccc1[nH]4)C=C3)C=C2 [5,10-Dihexyl-15,20-bis-(4-methoxycarbonylphenyl)-porphyrin] | – | – | 131 °C | –
CCCCCCCCCCCCCc1c2nc(c(-c3cccc(O)c3)c3ccc([nH]3)c(CCCCCCCCCCCCC)c3nc(c(-c4cccc(O)c4)c4ccc1[nH]4)C=C3)C=C2 [5,15-Bis-(3-hydroxyphenyl)-10,20-bis-(tridecyl)-porphyrin] | – | – | 133 °C | –
CCCCCCc1c2nc(c(-c3ccc(C(=O)OC)cc3)c3ccc([nH]3)c(CCCCCC)c3nc(c(-c4ccc(C(=O)OC)cc4)c4ccc1[nH]4)C=C3)C=C2 [5,15-Dihexyl-10,20-bis-(4-methoxycarbonylphenyl)-porphyrin] | – | – | 238 °C | –
CCCCCCc1c2nc(c(-c3ccc(C(=O)O)cc3)c3ccc([nH]3)c(-c3ccc(C(=O)O)cc3)c3nc(c(CCCCCC)c4ccc1[nH]4)C(O)C3O)C=C2 (stereo not shown) [5,20-Bis-(4-carboxyphenyl)-10,15-dihexyl-7,8-dihydroxy-7,8-chlorin] | very strong photodynamic activity | very strong photodynamic activity | – | –
